The numbers were not newly measured in patent US20220249345A1, “PRODUCT FOR TREATING KERATINOUS FIBERS, CONTAINING SILANES OF SPECIFIC FORMULAE” (Henkel AG & Co. KGaA, priority 2019, published 2022), which cites them from elsewhere.

Read-outs that look alike come from different tables or passages of the source.

In the case of `Nc1cc(S(=O)(=O)[O-])cc2cc(S(=O)(=O)[O-])c(N=Nc3ccccc3)c(O)c12.[Na+].[Na+]` [Acid Red 33, diantrium salt of 5-amino-4-hydroxy-3-(phenylazo)-naphthalene-2,7-disulphonate], where the note is “25° C.”, the solubility in water entry is on record as “about 2.5 g/L”.

Turning to `O=S(=O)([O-])c1ccc(N=Nc2c(O)ccc3ccccc23)cc1.[Na+]` [Acid Orange 7, sodium salt of 4-[(2-hydroxy-1-naphthyl)azo]benzene sulphonate], the solubility in water entry (25° C.) was “more than 7 g/L”.

In the case of `O=C([O-])C1=NN(c2ccc(S(=O)(=O)[O-])cc2)C(=O)C1N=Nc1ccc(S(=O)(=O)[O-])cc1.[Na+].[Na+].[Na+]` (stereo not drawn) [Acid Yellow 23, trisodium salt of 4,5-dihydro-5-oxo-1-(4-sulfophenyl)-4-((4-sulfophenyl)azo)-1H-pyrazole-3-carboxylic acid], the “solubility in water” value (at about 25° C.) was “highly soluble in water”.
